Test results from PMC7096398, “Oxytocin Receptors Regulate Social Preference in Zebrafish” (Scientific Reports, 2020).
Entries after “also recorded” stand apart in the source; their conditions may differ.

How the values were obtained:
Avpr1ab = biological target: T1, Avpr1ab (Danio rerio, UniProt A0A8M1P6E3); assay: Inositol phosphate accumulation assay, antagonism of 1 μM zVP at Avpr1ab; type: cell-based, zebrafish; details: stimulated with agonist; antagonist up to 1 μM
T1 sequence (A0A8M1P6E3 1-410): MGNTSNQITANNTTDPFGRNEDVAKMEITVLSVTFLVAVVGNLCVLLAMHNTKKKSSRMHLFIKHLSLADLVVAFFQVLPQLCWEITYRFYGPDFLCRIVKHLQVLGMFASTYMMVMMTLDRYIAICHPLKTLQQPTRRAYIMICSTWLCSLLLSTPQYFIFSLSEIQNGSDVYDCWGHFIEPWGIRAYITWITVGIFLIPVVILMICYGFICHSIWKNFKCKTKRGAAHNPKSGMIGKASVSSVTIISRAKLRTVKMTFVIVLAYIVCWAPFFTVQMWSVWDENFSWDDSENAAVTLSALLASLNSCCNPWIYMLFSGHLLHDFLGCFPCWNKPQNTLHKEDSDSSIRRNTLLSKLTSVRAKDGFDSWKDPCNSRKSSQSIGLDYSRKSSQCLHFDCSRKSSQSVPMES
Experimental: The receptor constructs were ordered from GeneScript and subcloned into a pcDNA3.1/CT-GFP-TOPO vector. The coding sequences of the GenBank entries NM_001199370.1 (oxtr), NM_001199369.1 (oxtrl), NM_001301114.1 (avpr1aa), and NM_001297676.1 (avpr1ab) were used for synthesis. The stop codons were removed, and an additional […] was added to facilitate hybrid protein expression with GFP in frame from the vector. The GCCACC Kozak sequence was inserted before the start codons. After transformation of the plasmid constructs into TOP10 competent cells (Thermo Fisher Scientific), the Maxiprep (Thermo Fisher Scientific) method was used to amplify the plasmids for transfection.
The Inositol phosphate accumulation assay was performed according to previous descriptions to measure the potency of different ligands for zebrafish different oxytocin related receptors. Each receptor construct was transfected into HEK293 cells using Lipofectamine 2000 (Thermo Fisher Scientific). Myo2-^3H-inositol (PerkinElmer) at 3 μCi/mL was added the day after transfection. […] Samples were mixed with OptiPhase HiSafe (PerkinElmer Waltham, MA, USA) and ^3H radioactivity was measured with a Tri-Carb 2910TR liquid scintillation counter (PerkinElmer Waltham, MA, USA). […]

adult zebrafish = assay: Social preference in adult zebrafish; type: in vivo, zebrafish (Danio rerio)
Experimental: Adult and larval behavioural testing was performed between 9 AM and 4 PM. All fish were fed prior to and after experiments, and larvae were also given an additional feed at midday. Adult fish were of a 1:1 sex ratio, and focal fish and stimulus fish were size-matched. Adult fish and shoals were filmed using a web camera and Debut Video Capture Software (NCH Software, Greenwood Village, USA), and videos were analysed using EthoVision version 11 (Noldus, Wageningen, the Netherlands).
The experimental setup comprised one large test tank (60 cm × 30 cm), and two smaller side tanks (15 cm × 30 cm) positioned at the short ends of the test tank; see Fig. 4. The test tank (the arena) was divided into five different zones used when tracking the video recordings, see Fig. 4. The zone closest to the stimuli shoal was always designated Zone 1, and the zone furthest away from the shoal was always designated Zone 5. […] All tanks were visually isolated from each other during the acclimation period of 10 minutes.
A stimulus shoal of eight zebrafish, with a 1:1 sex ratio, was placed in one of the side tanks, while the opposite side tank remained empty. Focal fish and shoal fish were selected to be of similar size in order not to evoke adverse reactions, such as anxiety or aggression. The experiments were thoroughly randomized between treatment groups for time of day and shoal used. The stimulus fish had been habituated to the room and aquarium for 24 hours prior to the start of the experiments. Two shoals were used as stimulus shoals throughout the experiment. The side for the stimulus shoal was alternated in order to avoid any potential place preference of the focal fish. The reasons for using two shoals for all focal fish were to decrease the behavioural variation in focal fish that may be caused by inter-shoal variations, to decrease the stress in stimulus fish caused by netting and transferring them between tanks that may be transferred to the focal fish, and to limit the number of fish used according to the 3 R principles. There were no statistical significant effects of day of testing (One-way ANOVA; p > 0.7), time of testing (One-way ANOVA; p > 0.5), or the identity of the stimulus shoal (shoal 1 versus shoal 2; un-paired t-test; p > 0.1) on the total time the focal fish spent in Zone 1 (closest to the shoal) during the 15 minutes test time.
At 24 hours prior to the experiment, zebrafish were weighed, placed into separate holding tanks, and brought to the experimental room in order to acclimatise. The following day fish were intraperitoneally injected with vehicle Ringer’s solution (13 females and 8 males), or the antagonist (11 females and 10 males). The Ringer’s solution recipe was retrieved from the Zebrafish Information Network (ZFIN, University of Oregon, Eugene, OR, USA).
Intraperitoneal injections were conducted using a 1 mL U-100 BD MicroFine™ Insulin Syringe (Becton Dickinson France S.A.S., France). Post injection, animals were placed into their holding tanks for one hour to recover. […] Following this, focal fish were individually placed in the middle of the test tank and left to freely move around for ten minutes (acclimation period) before visual partitions were removed, which initiated the start of the test period (15 minutes).
All data for the social preference and novel tank diving experiments in adults were extracted as processed means per minute from EthoVision. For the shoaling experiments, raw data was exported from EthoVision, and then post-processed by an in-house script written in Python 3.4, in order to compute IFD, NND, and FND as described elsewhere. For timelines, repeated measures analysis of variance (RM-ANOVA) was used. For pairwise comparisons of total means between groups, Student’s T-tests were used.

**Q.** Which results are given for Cc1ccccc1N1CCN(S(=O)(=O)C[C@]23CC[C@H](C[C@@H]2NC(=O)[C@@H](N)CCS(C)(=O)=O)C3(C)C)CC1 [L-368,899]?
**A.** Antagonism at Avpr1ab, in words (Avpr1ab): did not block the response and not and without reducing the effect of the peptide agonist; Social preference in adults, in words (adult zebrafish; 100 µg per gram fish i.p.): decreased social preference; also recorded: inhibits social preference; Social preference in adults, in words (adult zebrafish; 100 µg per gram fish i.p., listed as antagonist): did not completely abolish social preference; Time in all the other zones vs vehicle (adult zebrafish; 15 min test, 100 µg per gram fish i.p.): significantly more time; Time in Zone 1 (closest to the shoal) vs vehicle (adult zebrafish; 15 min test, 100 µg per gram fish i.p., t(39) = 3.339, p = 0.0016): significantly less time; Distance from shoal vs vehicle (adult zebrafish; 15 min test, F(1,39) = 10.79, p = 0.0022): significantly further away; Social behaviour: Distance to shoal (adult zebrafish; adult social preference, 100 µg per gram fish i.p., 1 h before test, mean ± SEM, vehicle 11.0 ± 1.8): 19.7 ± 1.9 cm; Social behaviour: Social zone duration (adult zebrafish; adult social preference, 100 µg per gram fish i.p., 1 h before test, mean ± SEM, vehicle 45.9 ± 2.3): 34.5 ± 2.4 s/min; Locomotion: Distance (adult zebrafish; adult social preference, 100 µg per gram fish i.p., 1 h before test, mean ± SEM, vehicle 528 ± 19, p = 0.25): 496 ± 20 cm/min; Activity parameters vs vehicle, social preference test (adult zebrafish; average distance p = 0.25, average velocity p = 0.32): no significant differences; Approach to shoal, acclimation vs test period (adult zebrafish; paired T-test, average distance to shoal, antagonist t(19) = 5.983, p = 9e-6): responded to the visual stimuli of a conspecific shoal; Social preference, pilot experiment, 5 μg per gram fish (adult zebrafish; pilot, 5 μg L-368,899 per gram fish): did not affect social preference; Social preference, pilot experiment, 50 μg per gram fish (adult zebrafish; pilot, 50 μg L-368,899 per gram fish): did not affect social preference
